Patent US20110208153A1, “FORMULATIONS AND METHODS FOR NUTRIENT DELIVERY” (priority 2010, published 2011)

System: pre-retinal neovascularization
Assay: pre-retinal neovascularization in the OIR mouse model following gavage treatments
Type: in vivo
Conditions: for pre-retinal neovascularization relative to vehicle control: P<0.05
Source text: FIG. 1 provides a graphical summary of the analysis of pre-retinal neovascularization levels in the mouse model following gavage treatments. The numbers in brackets in the legend refer to gavage doses in g/kg bodyweight/day. An * indicates P-values<0.05.

Compound	pre-retinal neovascularization relative to vehicle control (2.5 g/kg body weight/day)	effect on pre-retinal neovascularization (in words)	pre-retinal neovascularization relative to vehicle control (5 g/kg of body weight/day)
CC/C=C\C/C=C\C/C=C\C/C=C\C/C=C\C/C=C\CCC(=O)O [DHA, docosahexaenoic acid]	49±4%	–	–
arginyl-glutamine dipeptide [Arg-Gln dipeptide]	–	dose-dependent reduction	39±6%
